# Measurements taken from PubChem BioAssay AID1963838 (Molecular Pharmacology Branch, DTP, NCI, 2024).
# Test system: 855422-203-R-J1-PDC complex spheroid viability
# Test: Anticancer human tumor 855422-203-R-J1-PDC patient-derived bladder carcinoma cell line growth inhibition [POLQ]
# Details: for IC50: curve of first compound; for viability, T/C: stronger effect = lower value
# Experimental: Multicellular complex tumor spheroid response to Polymerase (POL) inhibitors (novobiocin, ART-558, RP6685) in combination with a variety of drugs and investigational agents in selected tumor cell lines
# The POL inhibitors (novobiocin, ART-558, and RP6685) were evaluated both individually and in combination with standard of care and investigational anticancer small molecules within a complex spheroid model of solid tumors. . Complex spheroids include a stromal component modeled by human endothelial cells (HUVEC) and fibroblasts modeled by human mesenchymal stem cells (MSCs). The concentration ranges selected for each drug and investigational agent were based upon clinically achievable concentrations if the clinical Cmax of the agent was known.
# Compounds. The drugs and investigational agents: novobiocin (NSC847541), ART-558 (NSC835418), RP-6685 (NSC848927), peposertib (NSC802822), ceralasertib (NSC780249), elimusertib (NSC800525), camonsertib (NSC841442), AZD-1390 (NSC803789), olaparib (NSC753686), talazoparib (NSC767125), rucaparib (NSC756644), sotorasib (NSC818433), MRTX-1133 (NSC836407), SN-38 (NSC673596), topotecan (NSC609699), epotoside (NSC141540), doxorubicin (NSC123127), gemcitabine (NSC613327), 5-fluorouracil (NSC19893), paclitaxel (NSC125973), vemurafenib (NSC761431), MSA-2 (NSC828583), SN-011 (NSC837082), adavosertib (NSC754352), prexasertib (NSC758257), carboplatin (NSC241240) and oxaliplatin (NSC266046), were obtained from the National Cancer Institute (NCI) Developmental Therapeutics Program Chemical Repository (21). The FDA-approved anticancer drug set is available from the Developmental Therapeutics Program at https://dtp.cancer.gov/organization/dscb/obtaining/. […] The stock solutions were prepared in dimethyl sulfoxide (DMSO, Sigma-Aldrich, St. Louis, MO, cat. D2650), except for the platinum compounds which were prepared in saline (Quality Biological, Gaithersburg, MD, cat. 114-055-101), at 800-fold the tested concentration and stored at -70 degrees C prior to their use. All drugs and investigational agents were tested over a range starting from a high concentration at or near the clinical Cmax and decreasing in half-log increments. If the clinical Cmax for an agent had not been determined, the highest concentration tested was 10 microM, except for SN-38, which was tested at a high concentration of 1 microM.
# Cell Culture. All cells were maintained in an incubator at 37 degrees C and 5% CO2 with 95% humidity. The PDC lines were cultured according to standard operating procedures established by the NCI PDMR (https://pdmr.cancer.gov). Table 3 of the manuscript, lists the cell lines along with the number of the three cell types plated to form the mct-spheroids and media for tumor cell growth. After thawing, all PDC lines, except 997537-175-T-J1-PDC and 415267-285-R-J2-PDC, were cultured in Matrigel-coated flasks prepared with a working solution of 1X Ham's F-12 nutrient mix, without supplementation (Thermo Fisher Scientific, cat. 11765054), 100 U/mL penicillin-streptomycin (Thermo Fisher Scientific, cat. 15140122), and 2.5% Matrigel (Corning Inc., Corning, NY, cat. 354248) for the first three passages. The two PDC lines 997537-175-T-J1-PDC and 415267-285-R-J2-PDC were cultured on uncoated flasks. The 857933-349-R-J2-PDC line was cultured in 6C/Colon 1B media containing advanced DMEM/F-12 (Thermo Fisher Scientific, cat. 12634028), 10 mM HEPES (Thermo Fisher Scientific, cat. 15630080), 1X GlutaMAX supplement (Thermo Fisher Scientific, cat. 35050061), 0.1 mg/mL primocin (InvivoGen, San Diego, CA, cat. ant-pm-2), 10% defined fetal bovine serum, heat inactivated (HyClone Laboratories Inc., Logan, UT, cat. SH30070.03HI), 50% L-WRN conditioned media (ATCC, cat. CRL-3276), 1.25 mM N-Acetyl-L-cysteine (Sigma-Aldrich, cat. A9165), 10 mM nicotinamide (Sigma-Aldrich, cat. N0636), 1X B-27 supplement (Thermo Fisher Scientific, cat. 17504044), 1X N-2 supplement (Thermo Fisher Scientific, cat. […]
# [1] = second compound 0.0316 µM, first compound 0.0316 µM
# [2] = second compound 0.0316 µM, first compound 0.1 µM
# [3] = second compound 0.0316 µM, first compound 0.316 µM
# [4] = second compound 0.0316 µM, first compound 1 µM
# [5] = second compound 0.0316 µM, first compound 3.16 µM
# [6] = second compound 0.0316 µM, first compound 10 µM
# [7] = second compound 0.1 µM, first compound 0.0316 µM
# [8] = second compound 0.1 µM, first compound 0.1 µM
# [9] = second compound 0.1 µM, first compound 0.316 µM
# [10] = second compound 0.1 µM, first compound 1 µM
# [11] = second compound 0.1 µM, first compound 3.16 µM
# [12] = second compound 0.1 µM, first compound 10 µM
# [13] = second compound 0.316 µM, first compound 0.0316 µM
# [14] = second compound 0.316 µM, first compound 0.1 µM
# [15] = second compound 0.316 µM, first compound 0.316 µM
# [16] = second compound 0.316 µM, first compound 1 µM
# [17] = second compound 0.316 µM, first compound 3.16 µM
# [18] = second compound 0.316 µM, first compound 10 µM
# [19] = second compound 1 µM, first compound 0.0316 µM
# [20] = second compound 1 µM, first compound 0.1 µM
# [21] = second compound 1 µM, first compound 0.316 µM
# [22] = second compound 1 µM, first compound 1 µM
# [23] = second compound 1 µM, first compound 3.16 µM
# [24] = second compound 1 µM, first compound 10 µM
# [25] = second compound 3.16 µM, first compound 0.0316 µM
# [26] = second compound 3.16 µM, first compound 0.1 µM
# [27] = second compound 3.16 µM, first compound 0.316 µM
# [28] = second compound 3.16 µM, first compound 1 µM
# [29] = second compound 3.16 µM, first compound 3.16 µM
# [30] = second compound 3.16 µM, first compound 10 µM
# [31] = second compound 10 µM, first compound 0.0316 µM
# [32] = second compound 10 µM, first compound 0.1 µM
# [33] = second compound 10 µM, first compound 0.316 µM
# [34] = second compound 10 µM, first compound 1 µM
# [35] = second compound 10 µM, first compound 3.16 µM
# [36] = second compound 10 µM, first compound 10 µM
# 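Further: spheroids exposed to compounds for seven days before readout.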
structure (smiles),measurement,setting,value
COc1cc(C2c3cc4c(cc3C(OC3OC5COC(C)OC5C(O)C3O)C3COC(=O)C23)OCO4)cc(OC)c1O (centres undefined) + Nc1ccc(C#CCN(C(=O)Cc2ncc(C(F)(F)F)cc2C(F)(F)F)c2ccc(F)cc2)nn1,IC50,second compound 0.0316 µM,525 nM
same,IC50,second compound 0.1 µM,477 nM
same,IC50,second compound 0.316 µM,446 nM
same,IC50,second compound 1 µM,439 nM
same,IC50,second compound 3.16 µM,335 nM
same,IC50,second compound 10 µM,380 nM
same,"viability, T/C",[1],120%
same,"viability, T/C",[2],127%
same,"viability, T/C",[3],78.5%
same,"viability, T/C",[4],15%
same,"viability, T/C",[5],10%
same,"viability, T/C",[6],7.23%
same,"viability, T/C",[7],108%
same,"viability, T/C",[8],164%
same,"viability, T/C",[9],71.5%
same,"viability, T/C",[10],21%
same,"viability, T/C",[11],8.67%
same,"viability, T/C",[12],4.47%
same,"viability, T/C",[13],94.4%
same,"viability, T/C",[14],137%
same,"viability, T/C",[15],66.1%
same,"viability, T/C",[16],21.8%
same,"viability, T/C",[17],10.4%
same,"viability, T/C",[18],4.7%
same,"viability, T/C",[19],92.2%
same,"viability, T/C",[20],141%
same,"viability, T/C",[21],64.8%
same,"viability, T/C",[22],23.5%
same,"viability, T/C",[23],10.1%
same,"viability, T/C",[24],4.86%
same,"viability, T/C",[25],99.3%
same,"viability, T/C",[26],135%
same,"viability, T/C",[27],52%
same,"viability, T/C",[28],20.5%
same,"viability, T/C",[29],10.7%
same,"viability, T/C",[30],4.56%
same,"viability, T/C",[31],105%
same,"viability, T/C",[32],114%
same,"viability, T/C",[33],56.5%
same,"viability, T/C",[34],19.5%
same,"viability, T/C",[35],11.1%
same,"viability, T/C",[36],5.88%
COc1cccc2c1C(=O)c1c(O)c3c(c(O)c1C2=O)CC(O)(C(=O)CO)CC3OC1CC(N)C(O)C(C)O1 (centres undefined) + Nc1ccc(C#CCN(C(=O)Cc2ncc(C(F)(F)F)cc2C(F)(F)F)c2ccc(F)cc2)nn1,IC50,second compound 0.0316 µM,< 31.6 nM
same,IC50,second compound 0.1 µM,< 31.6 nM
same,IC50,second compound 0.316 µM,< 31.6 nM
same,IC50,second compound 1 µM,< 31.6 nM
same,IC50,second compound 3.16 µM,< 31.6 nM
same,IC50,second compound 10 µM,< 31.6 nM
same,"viability, T/C",[1],26.2%
same,"viability, T/C",[2],12.8%
same,"viability, T/C",[3],3.75%
same,"viability, T/C",[4],0.9%
same,"viability, T/C",[5],1.51%
same,"viability, T/C",[6],4.81%
same,"viability, T/C",[7],25.7%
same,"viability, T/C",[8],12.2%
same,"viability, T/C",[9],3.22%
same,"viability, T/C",[10],0.93%
same,"viability, T/C",[11],1.37%
same,"viability, T/C",[12],3.69%
same,"viability, T/C",[13],26%
same,"viability, T/C",[14],12.8%
same,"viability, T/C",[15],2.51%
same,"viability, T/C",[16],0.82%
same,"viability, T/C",[17],1.39%
same,"viability, T/C",[18],5.31%
same,"viability, T/C",[19],24.3%
same,"viability, T/C",[20],11.5%
same,"viability, T/C",[21],4.7%
same,"viability, T/C",[22],0.92%
same,"viability, T/C",[23],1.13%
same,"viability, T/C",[24],6.67%
same,"viability, T/C",[25],26.3%
same,"viability, T/C",[26],12.7%
same,"viability, T/C",[27],4.52%
same,"viability, T/C",[28],1.14%
same,"viability, T/C",[29],1.38%
same,"viability, T/C",[30],4.89%
same,"viability, T/C",[31],21.4%
same,"viability, T/C",[32],12.1%
same,"viability, T/C",[33],2.85%
same,"viability, T/C",[34],2.62%
same,"viability, T/C",[35],1.74%
same,"viability, T/C",[36],5.86%
